Measurements from patent US20250020668A1, “CANCER LESION TISSUE EVALUATION FOR OPTIMIZING EFFECT OF BORON NEUTRON CAPTURE THERAPY” (3-D Matrix, Ltd., priority 2018, published 2025).

System: PABPc1
Assay: Immunoprecipitation with anti-BSH antibody from U251 cell crushing solution
Assay type: binding
Settings: 50 μM, FIG. 2 and FIG. 3 combined
Description: To a cell crushing solution of a malignant brain tumor cell line U251, simple BSH (referred to BSH) (50 μM) or BSH-11R (50 μM) was added, and proteins which bind to BSH and BSH-11R were explored by immunoprecipitation with an anti-BSH antibody (10 μg).
To examine whether the binding of BSH-11R to the translation-related factors is a direct or indirect binding, a subline of malignant brain tumor cell line U251 that underwent knockdown of the translation-related factors with shRNA lentivirus was prepared. To the cell crushing solutions, BSH-11R (50 μM) was added, and translation-related factors that bind to BSH-11R were analyzed with an anti-BSH antibody (10 μg).

mercaptoundecahydrodecaborate [BSH]
binding to PABPc1: binds to BSH in an RNA-dependent manner
